Data published in patent publication US11485731B2, “Compounds and methods useful in the treatment of a PRMT5-mediated disorder” (ARGONAUT THERAPEUTICS LIMITED, priority 2017, dated 2022).

molecular target: human PRMT5/MEP50 (Homo sapiens (Human), UniProt O14744); experiment: PRMT5 chemiluminescent assay; type: biochemical; settings: human PRMT5/MEP50 expressed in HEK293 cells; biotinylated histone peptides; Histone H4 monomethyl R3 antibody; chemiluminescent readout
Method in brief: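 HEK293-expressed PRMT5/MEP50, diluted to 5 ng/µL in assay buffer, reacted 60 min with rotation on plate-bound biotinylated histone peptides. Product was detected with anti-histone H4 R3 monomethyl antibody (60 min), then HRP secondary (30 min) and chemiluminescent substrate. IC50 values came from the chemiluminescence signal.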

human PRMT5/MEP50, sequence (O14744 whole entry): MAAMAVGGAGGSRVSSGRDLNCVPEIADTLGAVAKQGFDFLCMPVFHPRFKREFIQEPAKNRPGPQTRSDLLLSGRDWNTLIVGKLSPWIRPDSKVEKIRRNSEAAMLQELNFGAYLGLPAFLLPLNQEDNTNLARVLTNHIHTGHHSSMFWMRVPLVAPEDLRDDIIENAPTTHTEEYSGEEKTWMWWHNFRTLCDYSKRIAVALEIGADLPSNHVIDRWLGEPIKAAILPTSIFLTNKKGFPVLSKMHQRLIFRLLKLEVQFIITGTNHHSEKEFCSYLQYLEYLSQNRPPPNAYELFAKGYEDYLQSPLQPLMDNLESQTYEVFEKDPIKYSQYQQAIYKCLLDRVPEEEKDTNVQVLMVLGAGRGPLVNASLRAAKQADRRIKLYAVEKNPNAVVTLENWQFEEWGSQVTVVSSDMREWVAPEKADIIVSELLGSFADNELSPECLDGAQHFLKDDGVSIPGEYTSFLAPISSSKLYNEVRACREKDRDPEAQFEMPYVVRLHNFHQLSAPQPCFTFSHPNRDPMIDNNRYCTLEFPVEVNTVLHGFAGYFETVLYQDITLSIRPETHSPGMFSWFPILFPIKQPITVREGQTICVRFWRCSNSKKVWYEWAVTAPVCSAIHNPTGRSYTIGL
human PRMT5/MEP50, sequence (Q9BQA1 whole entry partner): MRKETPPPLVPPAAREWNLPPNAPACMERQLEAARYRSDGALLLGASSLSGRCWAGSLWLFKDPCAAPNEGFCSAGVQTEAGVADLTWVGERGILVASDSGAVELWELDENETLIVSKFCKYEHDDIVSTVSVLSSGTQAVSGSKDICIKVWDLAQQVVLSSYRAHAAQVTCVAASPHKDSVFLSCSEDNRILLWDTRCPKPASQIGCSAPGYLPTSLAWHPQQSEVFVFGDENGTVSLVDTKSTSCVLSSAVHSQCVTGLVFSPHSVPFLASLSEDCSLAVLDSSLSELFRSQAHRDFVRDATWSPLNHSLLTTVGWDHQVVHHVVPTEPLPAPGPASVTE

Point of comparison: O=C(NCC(O)CN1CCc2ccccc2C1)N1CCCCCC1 (stereo not shown) [Example 1N, N-[2-hydroxy-3-(1,2,3,4-tetrahydroisoquinolin-2-yl)propyl]azepane-1-carboxamide], IC50 2380 nM. Against it:
- O=C(NCC(O)CN1CCc2sccc2C1)N1CCCC(c2ccccc2)C1 (stereo not shown) [Example 1AC, N-(3-(6,7-dihydrothieno[3,2-c]pyridin-5(4H)-yl)-2-hydroxypropyl)-3-phenylpiperidine-1-carboxamide] — 6.2-fold lower, 384 nM
- O=C(NCC(O)CN1CCc2ccccc2C1)N1CCCC(c2ccccc2)CC1 (stereo not shown) [Example 1CN, N-(3-(3,4-dihydroisoquinolin-2(1H)-yl)-2-hydroxypropyl)-4-phenylazepane-1-carboxamide] — 2.2-fold lower, 1100 nM
- CC(=O)N1CCCN(C(=O)NC[C@H](O)CN2CCc3ccccc3C2)CC1 [Example 1AP, (S)-4-acetyl-N-(3-(3,4-dihydroisoquinolin-2(1H)-yl)-2-hydroxypropyl)-1,4-diazepane-1-carboxamide] — 4.9-fold lower, 484 nM
